Experiments:
[1] = Stability of isorhapontigenin in rat plasma QC samples under different storage conditions; assay type: in vitro ADME, Sprague-Dawley rat; settings: for Freeze thaw stability (% remaining): 3 cycles; for Post preparative stability (% remaining): 4 °C, 6 h; for Long term stability (% remaining): -80 °C, 14 days; for Short term stability (% remaining): on ice, 3 h
Method: Stock solutions of ISO were prepared by dissolution in DMSO and they were stored at room temperature. The stock solutions were further diluted using blank rat plasma to prepare the calibration standards and QC samples. The stock solution of IS was dissolved in acetonitrile to a concentration of 10 μg/mL. 100 μL IS solution was aliquoted into 1.5-mL polypropylene tubes for storage at −80°C. During sample preparation, this solution was further diluted to the working concentration of 10 ng/mL using acetonitrile containing 0.18 μM of disodium EDTA and stored at 4°C.
The calibration range was 1–1000 ng/mL. A simple protein precipitation procedure was used for sample cleanup prior to LC–MS/MS analysis ([Chen et al., 2015], [2016b]). Three volumes of 10 ng/mL IS working solution (^13C isotopically labeled resveratrol in acetonitrile–0.18 μM disodium EDTA) were added to one volume of plasma sample spiked with of L-ascorbic acid at a final concentration of 0.8 mg/mL. After vigorous vortex, centrifugation of samples was performed at 15,000 g for 10 min at 4°C. Subsequently, the clear supernatants were transferred into HPLC vials. During each LC–MS/MS analysis, 1 μL of supernatant was injected into the system.
The dilution integrity was confirmed using a dilution factor of 20. In the presence of L-ascorbic acid (0.8 mg/mL), ISO appeared to stable in plasma; similarly, addition of EDTA in IS acetonitrile solution (0.18 μM) enhanced the post-preparative stability. The details in accuracy, precision, stability, and matrix effect can be found in Supplementary Tables S1–S3.

[2] = Plasma pharmacokinetics of isorhapontigenin in Sprague-Dawley rats (LC–MS/MS); assay type: in vivo; settings: rat
Method: This in vivo study was conducted with strict adherence to the “Guidelines on the Care and Use of Animals for Scientific Purposes” (Singapore). The pharmacokinetic study design and animal handling procedures were reviewed and approved by the Institutional Animal Care and Use Committee of the National University of Singapore (NUS; R15-1273). All animal experiments were carried out in a specific pathogen-free animal facility (temperature: 22 ± 1°C; humidity: 60–70%) in Comparative Medicine, NUS. Sprague-Dawley rats (male, 9–10 weeks old, weight: 300–350 g) were purchased from InVivos (Singapore). The rats were housed under a 12 h light–dark cycle with free access to food and water. On the day before the pharmacokinetic study, surgery was performed under isoflurane anesthesia and a catheter (polyethylene tube, i.d. = 0.580 mm, o.d. = 0.965 mm, Becton Dickinson, Sparks, MD, United States) was implanted into the right jugular vein. Intravenous ISO administration and blood collection were carried out via this cannula. To prevent cross-contamination and blood clotting, ∼0.3 mL heparin-saline (10 I.U./mL) was flushed through the cannula after intravenous dosing or each blood collection. This reliable pharmacokinetic model has been routinely used in our laboratory to assess the pharmacokinetic profiles of resveratrol and its derivatives ([Yeo et al., 2013a],[b], [2017]; [Choo et al., 2014]; [Chen et al., 2015], [2016b],[c]; [Dai et al., 2018]).
0.3 M HP-β-CD was used to formulate ISO into a solution for intravenous injection while 0.3% CMC (w/v) was applied as a suspending vehicle for oral delivery ([Yeo et al., 2017]). To enhance the stability of ISO, L-ascorbic acid (final concentration: 0.1 mg/mL) was spiked into both intravenous and oral formulations ([Yeo et al., 2017]). The concentrations of ISO in intravenous and oral formulations were 5 and 13.3 mg/mL, respectively.
Twenty-two rats were divided into four groups. Group 1 (n = 5) received a single bolus intravenous injection of ISO at the dose of 90 μmol/kg (23.2 mg/kg). Serial blood samples were collected before dosing and at 5, 15, 30, 60, 90, 120, 180, 240, 300, 420, 540, and 720 min after intravenous injection. Group 2 (n = 5) received a single oral administration of ISO at the dose of 200 μmol/kg (51.6 mg/kg). Serial blood samples were collected before dosing and at 15, 30, 45, 60, 90, 120, 180, 240, 300, 420, 540, and 720 min after oral gavage. Group 3 (n = 5) received daily oral pre-treatment of oral dosing vehicle (2 mL/kg) while Group 4 (n = 7) received daily oral pre-treatment of ISO at the dose of 100 μmol/kg (25.8 mg/kg) for 1 week. On day 7, ∼8–10 h after the last pre-treatment dose, surgery was performed on rats in Groups 3 and 4 for jugular vein cannulation, and blood samples were also collected from Groups 3 and 4 for metabolomic study. On day 8, the pharmacokinetic study was carried out on these two groups of animals at the dose of 100 μmol/kg (25.8 mg/kg) using the same blood sampling schedule as Group 2.
All blood samples during the pharmacokinetic study were collected in heparinized tubes containing L-ascorbic acid (final concentration = 0.8 mg/mL) to ensure stability of ISO ([Yeo et al., 2017]). The samples were centrifuged at 5000 g for 5 min, and the plasma was harvested and stored at −40°C until LC–MS/MS analysis.
The LC–MS/MS analysis was carried out using an Agilent 1290 Infinity Liquid Chromatography system (Agilent Technologies, Santa Clara, CA, United States), which is coupled to an ABSciex QTRAP® 5500 mass spectrometer (AB Sciex, Framingham, MA, United States) and equipped with a TurboIon Spray probe (AB Sciex). The LC–MS/MS system was controlled by the Analyst 1.5.2 software (AB Sciex) and chromatographic data analysis was performed using the same software. […]

[3] = Group 1, single intravenous 90 μmol/kg, HP–β–CD
[4] = Group 2, single oral 200 μmol/kg, suspension
[5] = Group 3, oral 100 μmol/kg after 1-week vehicle pre-treatment, suspension
[6] = Group 4, oral 100 μmol/kg after 1-week daily oral ISO 100 μmol/kg pre-treatment, suspension
[7] = male, Sprague-Dawley, plasma, po, 100 umol/kg, Group 3, oral 100 μmol/kg after 1-week vehicle pre-treatment, suspension
[8] = male, Sprague-Dawley, plasma, po, 100 umol/kg, Group 4, oral 100 μmol/kg after 1-week daily oral ISO 100 μmol/kg pre-treatment, suspension
[9] = male, Sprague-Dawley, plasma, po, 200 umol/kg, Group 2, single oral 200 μmol/kg, suspension
[10] = single intravenous 90 μmol/kg, resveratrol data ref Chen et al., 2016c
[11] = single oral 200 μmol/kg, resveratrol data ref Chen et al., 2016c

Freeze thaw stability (% remaining) ([1]; QC 2 ng/ml in rat plasma): 98.4 ± 7.6 % remaining | Freeze thaw stability (% remaining) ([1]; QC 400 ng/ml in rat plasma): 94.0 ± 2.4 % remaining | Freeze thaw stability (% remaining) ([1]; QC 800 ng/ml in rat plasma): 92.3 ± 1.2 % remaining | Post preparative stability (% remaining) ([1]; QC 2 ng/ml): 108.0 ± 6.1 % remaining | Post preparative stability (% remaining) ([1]; QC 400 ng/ml): 108.0 ± 1.0 % remaining | Post preparative stability (% remaining) ([1]; QC 800 ng/ml): 108.0 ± 4.1 % remaining | Long term stability (% remaining) ([1]; QC 2 ng/ml in rat plasma): 87.9 ± 2.5 % remaining | Long term stability (% remaining) ([1]; QC 400 ng/ml in rat plasma): 101.0 ± 3.0 % remaining | Long term stability (% remaining) ([1]; QC 800 ng/ml in rat plasma): 97.0 ± 6.5 % remaining | Short term stability (% remaining) ([1]; QC 2 ng/ml in rat plasma): 104.0 ± 6.0 % remaining | Short term stability (% remaining) ([1]; QC 400 ng/ml in rat plasma): 102.0 ± 5.4 % remaining | Short term stability (% remaining) ([1]; QC 800 ng/ml in rat plasma): 98.7 ± 6.4 % remaining | AUC0→last /Dose [2, 3]: 14.2 ± 5.2 kg⋅min/L | V [2, 3]: 0.893 ± 0.103 L/kg | AUC0→last /Dose [2, 4]: 4.28 ± 0.94 kg⋅min/L | Cmax /Dose [2, 4]: 27800 ± 3200 µg/mL | AUC0→last /Dose [2, 5]: 2.54 ± 0.69 kg⋅min/L | Cmax /Dose [2, 5]: 29200 ± 2800 µg/mL | AUC0→last /Dose [2, 6]: 2.97 ± 0.80 kg⋅min/L | Cmax /Dose [2, 6]: 23900 ± 6200 µg/mL | clearance ([2]; male, Sprague-Dawley, plasma, 90 umol/kg, Group 1, single intravenous 90 μmol/kg, HP–β–CD): 76.8 ± 23.7 mL/min/kg | Tmax ([2]; male, Sprague-Dawley, plasma, 100 umol/kg, Group 3, oral 100 μmol/kg after 1-week vehicle pre-treatment, suspension): 0.25 h | Tmax ([2]; male, Sprague-Dawley, plasma, 200 umol/kg, Group 2, single oral 200 μmol/kg, suspension): 0.25 to 0.75 h | MRT ([2]; male, Sprague-Dawley, plasma, iv, 90 umol/kg, Group 1, single intravenous 90 μmol/kg, HP–β–CD): 0.313 h | MRT [2, 7]: 2.27 h | bioavailability [2, 7]: 17.9 ± 4.9% | MRT [2, 8]: 3.03 h | bioavailability [2, 8]: 20.8 ± 5.6% | MRT [2, 9]: 3.07 h | bioavailability [2, 9]: 30.1 ± 6.6% | CL relative to resveratrol [2, 10]: comparable to resveratrol | V relative to resveratrol [2, 10]: comparable to resveratrol | average MRT longer than resveratrol [2, 10]: ~70% | time ISO remained measurable in the systemic circulation after administration ([2]; single oral 100 μmol/kg): at least 12 h | F relative to resveratrol [2, 11]: two to three folds greater | dose normalized AUC0→t (AUC0→t/Dose) relative to resveratrol [2, 11]: two to three folds greater | dose normalized Cmax (Cmax/Dose) relative to resveratrol [2, 11]: two to three folds greater
Structure (SMILES): COc1cc(/C=C/c2cc(O)cc(O)c2)ccc1O [isorhapontigenin, trans-3,5,4′-trihydroxy-3′-methoxystilbene]

Reference: publication PMC6050476, “Pre-clinical Pharmacokinetic and Metabolomic Analyses of Isorhapontigenin, a Dietary Resveratrol Derivative” (Frontiers in Pharmacology, 2018)
